Results as given in patent publication US9308238B2, “Compositions and methods for modulating EMT and uses thereof” (Whitehead Institute for Biomedical Research, priority 2010, dated 2016).

B1: BMP4: Recombinant BMP4 protein obtained from Stemgent (protein, UniProt P12644 293-408, looked up)
Bone morphogenetic protein 4: SPKHHSQRARKKNKNCRRHSLYVDFSDVGWNDWIVAPPGYQAFYCHGDCPFPLADHLNSTNHAIVQTLVNSVNSSIPKACCVPTELSAISMLYLDEYDKVVLKNYQEMVVEGCGCR

Experiments:
Format in all cases: cell-based, human
luminal MECs = assay: Migration assay, primary luminal cells after pre-treatment; conditions: 5-day treatment
Source text: FIGS. 7A-7G. Migratory and self-renewal properties in primary MECs: inhibition and induction. (FIG. 7A) Mammosphere Assay: microscopy images of mammospheres and quantification of mammosphere formation by purified basal, luminal and unsorted MEC populations. Primary spheres were allowed to form over a period of 7 days, dissociated and seeded for secondary sphere formation, n(mammosphere)/1000 cells, n=48, (FIG. 7B) Migration Assay: microscopy images of migrated cells in Boyden Chambers and quantification, n=6. (FIG. 7C) Mammosphere Assay: basal cells were seeded into assay after a 5 day pre-treatment with TGF-beta inhibitors A83-01 and […] (SB43, both inhibitors at 10 μM) as well as recombinant SFRP1 (1 μg/ml), n(mammospheres)/1000 cells, n=6. (FIG. 7D) Migration Assay: basal cells were seeded into migration assays treated after 5 day pre-treatment as described in (C), n=24. (FIG. 7E) Mammosphere Assay: luminal cells were seeded into the assay following a 5 day pre-treatment with TGF-beta 1 (5 ng/ml), Wnt5a (250 ng/ml), anti-E-Cadherin antibody (1 μg/ml) plus anti-DKK1 antibody (10 μg/ml), and a cocktail of all factors added together (iEMT-II), n(mammospheres)/1000 cells, n=24. (FIG. 7F) Migration Assay: luminal cells were seeded into Boyden Chambers following a 5 day pre-treatment as described in (E), n=6. […]

HMLE^24+ cells = assay: Proliferation in adherent monolayer cultures after 14 day treatment; conditions: after cessation of 14 day treatment
Source text: FIGS. 12A-12F. Concomitant stimulation of Wnt and TGF-beta pathways allows HMLE^24+ cells to enter into a mesenchymal and SC-like state. (FIG. 12A) RT-PCR: SFRP1, L32 was loading control, n=3; SFRP1 mRNA levels in HMLE^24+ stably expressing two hairpin-encoding vectors (shSFRP1a and -b) compared cells expressing a control hairpin targeting GFP (shGFP), HMLE^24+-shSFRP1b were used for iEMT experiments. (FIG. 12B) Flow cytometry: Expression of CD44 and CD24 cell-surface markers in HMLE, HMLE^24+-shGFP and -shSFRP1 cells. […] (FIG. 12F) Growth curves: proliferation of indicated cell lines was monitored by the MTS assay for 3 days, 8 passages after cessation of 14 day treatment as described in (D), n=12.
Proliferation Assays. […] Cell viability was measured using CellTiter-Glo (Promega) according to the manufacturer's instructions.

HTwist and MSP cells = assay: Mammosphere assay, HTwist and MSP cells
Protocol: FIGS. 10A-10E. […] (FIG. 10E) Mammosphere Assay: HTwist and MSP were treated daily during mammosphere formation (5 days) with BMP4 (0.5 μg/ml), SB431542 (10 μM) or a combination of both, n(mammospheres)/1000 cells, n=6.
Mammosphere and tumorsphere assay. Assays were performed as previously described with modifications (Dontu et al., 2003): 1000 cells/well were seeded in 96-well ultra-low adhesion plates (Corning) in MEGM medium containing 1.3% methylcellulose (Stem Cell Technologies) supplemented with 20 ng/ml EGF, 10 ng/ml bFGF (both Sigma) and B27 (Gibco). Primary spheres were dissociated by trypsinization and replated for secondary sphere formation after a period of 5-7 days.

Molecule	increase in motile cells (luminal MECs)	proliferation rates in adherent monolayer cultures (HMLE^24+ cells)	reduction of primary mammosphere formation (HTwist and MSP cells; added daily for 5 days (FIG. 3D))	reduction of secondary sphere formation (HTwist and MSP cells; both cell lines, treated during primary sphere formation only)
TGF-beta 1: recombinant TGF-beta 1 protein, used at 5 ng/ml	8 fold	stably lower		
B1			60%	90%
